Data published in PubChem BioAssay (NCI).
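The compound was tested at five concentrations on cells cultured in 96-well plates, with a 48-hour exposure period. GI50: concentration for 50% inhibition of growth. TGI denotes the concentration required for complete inhibition of growth.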

How the values were obtained:
Assay in all cases: inhibition of tumour cell growth, NCI panel, 48 h
[1] = system: HOP-62 NSCLC
[2] = system: NCI-H522 lung
[3] = system: U251 CNS
[4] = system: MDA-MB-231 breast
[5] = system: OVCAR-8 ovarian
[6] = system: RXF 393 renal
[7] = system: SN12C renal
[8] = system: KM12 colon
[9] = system: SF-295 CNS
[10] = system: SR leukemia
[11] = system: MALME-3M melanoma
[12] = system: M14 melanoma
[13] = system: RPMI-8226 leukemia
[14] = system: DU-145 prostate
[15] = system: LOX IMVI melanoma
[16] = system: T-47D breast
[17] = system: HT29 colon
[18] = system: NCI-H23 lung
[19] = system: HCT-15 colon
[20] = system: OVCAR-4 ovarian
[21] = system: BT-549 breast
[22] = system: SK-OV-3 ovarian
[23] = system: UACC-62 melanoma
[24] = system: SW-620 colon
[25] = system: NCI-H226 lung
[26] = system: UACC-257 melanoma
[27] = system: OVCAR-3 ovarian
[28] = system: SK-MEL-28 melanoma
[29] = system: OVCAR-5 ovarian
[30] = system: HS 578T breast
[31] = system: NCI-H460 lung
[32] = system: SF-268 CNS
[33] = system: HCT-116 colon
[34] = system: SNB-75 CNS
[35] = system: UO-31 renal
[36] = system: SK-MEL-5 melanoma
[37] = system: HL-60(TB) leukemia
[38] = system: SF-539 CNS
[39] = system: IGROV1 ovarian
[40] = system: CCRF-CEM leukemia
[41] = system: TK-10 renal
[42] = system: K-562 leukemia
[43] = system: A549 NSCLC
[44] = system: MDA-MB-435
[45] = system: EKVX NSCLC
[46] = system: COLO 205 colon
[47] = system: CAKI-1 renal
[48] = system: ACHN renal
[49] = system: PC-3 prostate
[50] = system: MOLT-4 leukemia
[51] = system: HCC-2998 colon
[52] = system: SK-MEL-2 melanoma
[53] = system: HOP-92 NSCLC
[54] = system: A498 renal
[55] = system: MCF7 breast
[56] = system: NCI/ADR-RES ovarian

## CCCCN1CCN(c2ccc3nc(-c4ccc5nc(-c6ccc(OC)c(OC)c6)[nH]c5c4)[nH]c3c2)CC1
[1]
  GI50: 1.06 µM
  TGI: 5.07 µM
[2]
  GI50: 0.258 µM
  TGI: 1.52 µM
[3]
  GI50: 1.05 µM
  TGI: 2.26 µM
[4]
  GI50: 1.54 µM
  TGI: 3.1 µM
[5]
  GI50: 0.435 µM
  TGI: 2.17 µM
[6]
  GI50: 0.917 µM
  TGI: 2.15 µM
[7]
  GI50: 0.738 µM
  TGI: 3.66 µM
[8]
  GI50: 1.37 µM
  TGI: 3.13 µM
[9]
  GI50: 0.647 µM
  TGI: 3.54 µM
[10]
  GI50: 0.308 µM
  TGI: 1.38 µM
[11]
  GI50: 0.0734 µM
  TGI: 1.27 µM
[12]
  GI50: 0.213 µM
  TGI: 1.52 µM
[13]
  GI50: 0.458 µM
  TGI: 2.12 µM
[14]
  GI50: 0.754 µM
  TGI: 4.04 µM
[15]
  GI50: 0.366 µM
  TGI: 1.31 µM
[16]
  GI50: 0.399 µM
  TGI: 2.85 µM
[17]
  GI50: 0.389 µM
  TGI: 1.98 µM
[18]
  GI50: 0.617 µM
  TGI: 2.03 µM
[19]
  GI50: 3.29 µM
  TGI: 30 µM
[20]
  GI50: 0.334 µM
  TGI: 1.88 µM
[21]
  GI50: 1.27 µM
  TGI: 2.69 µM
[22]
  GI50: 1.43 µM
  TGI: 6.34 µM
[23]
  GI50: 0.431 µM
  TGI: 1.94 µM
[24]
  GI50: 0.306 µM
  TGI: 1.76 µM
[25]
  GI50: 1.34 µM
  TGI: 2.97 µM
[26]
  GI50: 0.537 µM
  TGI: 2.39 µM
[27]
  GI50: 0.428 µM
  TGI: 1.95 µM
[28]
  GI50: 0.857 µM
  TGI: 2.24 µM
[29]
  GI50: 2.32 µM
  TGI: 6.09 µM
[30]
  GI50: 1.3 µM
  TGI: 4.31 µM
[31]
  GI50: 0.616 µM
  TGI: 1.55 µM
[32]
  GI50: 1.35 µM
  TGI: 6.64 µM
[33]
  GI50: 0.285 µM
  TGI: 1.45 µM
[34]
  GI50: 0.18 µM
  TGI: 3.84 µM
[35]
  GI50: 8.04 µM
  TGI: > 39.9 µM
[36]
  GI50: 0.599 µM
  TGI: 2.13 µM
[37]
  GI50: 0.646 µM
  TGI: 2.95 µM
[38]
  GI50: 1.22 µM
  TGI: 2.63 µM
[39]
  GI50: 1.29 µM
  TGI: 3.39 µM
[40]
  GI50: 0.434 µM
  TGI: 2.05 µM
[41]
  GI50: 1.12 µM
  TGI: 3.44 µM
[42]
  GI50: 0.28 µM
  TGI: 1.89 µM
[43]
  GI50: 1.17 µM
  TGI: 3.32 µM
[44]
  GI50: 0.599 µM
  TGI: 2 µM
[45]
  GI50: 2.14 µM
  TGI: > 100 µM
[46]
  GI50: 0.173 µM
  TGI: 1.36 µM
[47]
  GI50: 0.49 µM
  TGI: 3.98 µM
[48]
  GI50: 2.27 µM
  TGI: 12.4 µM
[49]
  GI50: 1.16 µM
  TGI: 3.29 µM
[50]
  GI50: 0.903 µM
  TGI: 3.84 µM
[51]
  GI50: 1.04 µM
  TGI: 2.4 µM
[52]
  GI50: 1.32 µM
  TGI: 2.77 µM
[53]
  GI50: 1.52 µM
  TGI: 6.64 µM
[54]
  GI50: 0.894 µM
  TGI: 2.36 µM
[55]
  GI50: 0.196 µM
  TGI: 1.56 µM
[56]
  GI50: > 100 µM
  TGI: > 100 µM
